Measurements published in paper PMC10516900 (Communications Biology, 2023).
Values joined by “and” are separate entries in the source; they are usually repeats but may differ in a detail not shown here. Equal values may be shown once.

Columns and labels:
Format in all cases: cell-based, human
HCT116 (p53+/+) cells [1] = assay: Q-PCR relative expression levels, HCT116 (p53+/+)
HCT116 (p53-/-) cells [2] = assay: Q-PCR relative expression levels, HCT116 (p53-/-)
Text: (d) Western blot analysis was
The data represent the mean ± SD (*;p<0.05,
(1 picture or pasted object on this page, not shown here)

HCT116 (p53+/+) cells [3] = assay: Cell proliferation assay (WST-1), HCT116 (p53+/+); conditions: absorbance at 450 nm
Procedure: (§1) After transfection, a cell proliferation assay was conducted each day using EZ-Cytox (Daeilbio, WST-1; #EZ-1000), using the manufacturer’s instructions. For P50429, the cells were seeded at 3000 or 6000 cells per well with an inhibitor concentration of 25 μM and 12.5 to 100 μM, respectively. EZ-Cytox (DoGEN, EZ-3000) was diluted using media and incubated for 30 min. The absorbance was measured at a wavelength of 450 nm using a microplate absorbance reader (Bio-Rad).

HCT116 (p53+/+) cells [4] = assay: Colony formation assay, HCT116 (p53+/+); conditions: for Colony formation, colony number: WT (p53+/+), 10 days, three experiments and AVERAGE
Procedure: (§2) The cells were re-suspended with trypsin-EDTA, and 1000 cells were seeded in 35 mm dishes 48 h after transfection. After 10 days, the cells were washed with PBS and fixed in 4% paraformaldehyde for 10 min before being stained with Crystal violet for 30 min and washed with PBS.

HCT116 (p53-/-) cells [5] = assay: Cell proliferation assay (WST-1), HCT116 (p53-/-); conditions: for Cell viability (WST-1 absorbance): P53-/-, absorbance at 450 nm
Procedure: as §1

p53 = assay: Western blot analysis of protein levels, HCT116 (p53+/+)
Procedure: Stained colonies were counted in three independent experiments. The data represent the mean ± SD (*: p < 0.05, **: p < 0.005, and ***: p < 0.0005).
A total of 10–50 μg protein was extracted from cells and used for Western blot analysis. Briefly, the cells were lysed using protein lysis buffer (50 mM Tris–Cl, 150 mM NaCl, 1% Triton X-100, 1 mM EDTA, 200 mM Na3VO4, 1x proteinase inhibitor, pH 7.4) and the protein concentration was measured using a Micro BCA^TM Protein Assay kit (Thermo Scientific), based on the standard curve of BSA. The antibodies used for immunoblot analysis were purchased and assessed for equal loading as follows: rabbit anti-USP7 (#A300-034, dilution ratio 1:1000) and rabbit anti-USP47 (#A301-048A, 1:1000) from Bethyl Laboratories; mouse anti-Flag (#F1804, 1:1000) from Sigma Aldrich; rabbit anti-ubiquitin (#3933, 1:2000) from Cell Signaling; mouse anti-p53 (#sc-126, 1:1000), and mouse anti-HSP90α/β (#sc-13119, 1:5000) from Santa Cruz Biotechnology; rabbit anti-β-actin (#LF-PA0207, 1:5000) from AbFrontier. Samples were analyzed using SDS-PAGE, and chemiluminescence was measured using the Ez-Capture MG imaging system (ATTO Corporation).

HCT116 (p53-/-) cells [6] = assay: Colony formation assay, HCT116 (p53-/-); conditions: for Colony formation, colony number: KO (p53-/-), 10 days, three experiments and AVERAGE
Procedure: as §2

USP47i: siRNA targeting USP47 (5′-TGAAAAGGGATGTGCAAAA-3′) (chemistry not given here)
relative expression level of USP7 (Q-PCR) (HCT116 (p53+/+) cells [1]): 1.017 | relative expression level of USP47 (Q-PCR) (HCT116 (p53+/+) cells [1]): 0.5092 | relative expression level of USP7 (Q-PCR) (HCT116 (p53-/-) cells [2]): 0.9689 | relative expression level of USP47 (Q-PCR) (HCT116 (p53-/-) cells [2]): 0.3387 | Cell viability (WST-1 absorbance) (HCT116 (p53+/+) cells [3]; day 1 after transfection): 0.327 | Cell viability (WST-1 absorbance) (HCT116 (p53+/+) cells [3]; day 2 after transfection): 0.527 | Cell viability (WST-1 absorbance) (HCT116 (p53+/+) cells [3]; day 3 after transfection): 0.7565 | Cell viability (WST-1 absorbance) (HCT116 (p53+/+) cells [3]; day 4 after transfection): 0.9428 | decrease in the number of colonies relative to control cells (HCT116 (p53+/+) cells [4]; HCT116 p53+/+, Fig. 1b): approximately 30% | Colony formation, colony number (HCT116 (p53+/+) cells [4]): 271 and 259 and 252 | Colony formation, colony number (HCT116 (p53+/+) cells [4]; mean): 260.667 | Cell viability (WST-1 absorbance) (HCT116 (p53-/-) cells [5]; day 1 after transfection): 0.306 | Cell viability (WST-1 absorbance) (HCT116 (p53-/-) cells [5]; day 2 after transfection): 0.559 | Cell viability (WST-1 absorbance) (HCT116 (p53-/-) cells [5]; day 3 after transfection): 0.8146 | Cell viability (WST-1 absorbance) (HCT116 (p53-/-) cells [5]; day 4 after transfection): 1.235 | cell viability compared to control cells (HCT116 (p53-/-) cells [5]; p53-deficient HCT116): did not yield any discernible differences | protein levels of p53 (p53): increased | Colony formation, colony number (HCT116 (p53-/-) cells [6]): 367 and 379 and 377 | Colony formation, colony number (HCT116 (p53-/-) cells [6]; mean): 374.333 | colony formation compared to control cells (HCT116 (p53-/-) cells [6]; p53-deficient HCT116): did not yield any discernible differences
